# Measurements as given in publication PMC2600596 (European journal of pharmacology, 2008).
# Key:
# mu opioid receptor = type: binding; conditions: whole CHO cells, data not shown
# [1] = target: T1, hMOR (human mu opioid receptor) (Homo sapiens, UniProt P35372); type: binding
# hMOR = conditions: pH 7.5; cited from earlier work
# [2] = target: T1, hMOR (human mu opioid receptor); type: cell-based
# T1 sequence (P35372 whole entry): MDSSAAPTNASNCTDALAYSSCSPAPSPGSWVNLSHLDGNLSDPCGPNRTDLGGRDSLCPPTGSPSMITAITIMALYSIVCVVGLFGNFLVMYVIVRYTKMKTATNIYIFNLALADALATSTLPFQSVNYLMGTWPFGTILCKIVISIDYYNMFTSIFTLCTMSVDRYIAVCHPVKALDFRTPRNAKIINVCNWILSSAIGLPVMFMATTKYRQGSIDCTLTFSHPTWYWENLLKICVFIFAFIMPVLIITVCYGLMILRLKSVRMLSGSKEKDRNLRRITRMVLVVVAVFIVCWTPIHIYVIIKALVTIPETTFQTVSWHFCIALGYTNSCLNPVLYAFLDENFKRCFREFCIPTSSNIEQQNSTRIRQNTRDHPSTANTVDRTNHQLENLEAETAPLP
SMILES,[3H]-naloxone radioligand binding displaced (mu opioid receptor),Hill Slope [1],Ki ([1]; pH 7.4) [nM],Ki (hMOR) [nM],Imax (maximum percent inhibition of [3H]-cAMP accumulation) [2] [%]
C=CC[N+]1(C)CC[C@]23c4c5ccc(O)c4O[C@H]2C(=O)CC[C@@]3(O)[C@H]1C5 (stereo partly shown) [naloxone methiodide],More than 94%,,,,
"COC(=O)/C=C/C(=O)N[C@@H]1CC[C@@]2(O)[C@H]3Cc4ccc(O)c5c4[C@@]2(CCN3CC2CC2)[C@H]1O5 [β-FNA, β-funaltrexamine]",,−1.01,1.85,0.3,
"C[C@@H](NC(=O)[C@@H](N)Cc1ccc(O)cc1)C(=O)NCC(=O)N(C)[C@@H](Cc1ccccc1)C(=O)NCCO [DAMGO, [D-Ala^2, N-Me-Phe^4, Gly^5-ol]-enkephalin]",,−0.85,,,88.8
"Oc1ccc2c3c1O[C@H]1c4[nH]c5ccccc5c4C[C@@]4(O)[C@@H](C2)N(CC2CC2)CC[C@]314 [Naltrindole, naltrindole]",,−0.99,,6.3,
"Oc1ccc2c3c1O[C@H]1c4[nH]c5c(c4C[C@@]4(O)[C@@H](C2)N(CC2CC2)CC[C@]314)C[C@@]1(O)[C@H]2Cc3ccc(O)c4c3[C@@]1(CCN2CC1CC1)[C@H]5O4 [nor-BNI, nor-binaltorphimine]",,−0.99,,21,
